Experimental data: the supplement of paper PMC9663587

compound: CN(C)C(=O)c1cc2cnc(Nc3ccc(N4CCNCC4)cn3)nc2n1C1CCCC1 [LEE011/Ribociclib]; assay: increase in dead-cell fraction, 72 h; higher = more death; conditions: 0.001 µM;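 note: breast cancer cell lines in 384-well plates, stained with Hoechst plus LIVE/DEAD far red dye and imaged, cells above an LDR intensity threshold counted dead, Hoechst-negative corpses included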

Compared with SUM159, SUM185PE is lower in “increase in dead-cell fraction” value: -0.0013 for the first, -0.0065 for the second.

Going from SUM190PT to SUM229PE, the “increase in dead-cell fraction” value falls from 0.0052 to 0.0025.

In the case of SUM1315, the “increase in dead-cell fraction” value was 0.0236.

same assay, conditions: 0.003162 µM

Going from SUM159 to SUM185PE, the “increase in dead-cell fraction” value falls from 0.0006 to -0.0157.

Compared with SUM190PT, SUM229PE is lower in “increase in dead-cell fraction” value: 0.0077 for the first, -0.003 for the second.

SUM1315 was tested, and the “increase in dead-cell fraction” value was 0.0101.

same assay, conditions: 0.01 µM

Going from SUM159 to SUM185PE, the “increase in dead-cell fraction” value falls from 0.0082 to -0.0081.

Compared with SUM190PT, SUM229PE is lower in “increase in dead-cell fraction” value: 0.0145 for the first, 0.0012 for the second.

SUM1315 was tested, and the “increase in dead-cell fraction” value was 0.0448.

same assay, conditions: 0.03162 µM

First: SUM159
Second: SUM185PE
The “increase in dead-cell fraction” value of the first is higher: 0.013 for the first, -0.0009 for the second.

Compared with SUM190PT, SUM229PE is lower in “increase in dead-cell fraction” value: 0.0159 for the first, 0.0068 for the second.

In the case of SUM1315, the “increase in dead-cell fraction” value was 0.0191.

same assay, conditions: 0.1 µM

Going from SUM159 to SUM185PE, the “increase in dead-cell fraction” value falls from 0.0057 to -0.0246.

First: SUM190PT
Second: SUM229PE
The “increase in dead-cell fraction” value of the first is higher: 0.0213 for the first, 0.0061 for the second.

In the case of SUM1315, the “increase in dead-cell fraction” value was 0.054.

same assay, conditions: 0.3162 µM

Compared with SUM159, SUM185PE is lower in “increase in dead-cell fraction” value: 0.0121 for the first, -0.0198 for the second.

First: SUM190PT
Second: SUM229PE
The “increase in dead-cell fraction” value of the first is higher: 0.0196 for the first, 0.0005 for the second.

In the case of SUM1315, the “increase in dead-cell fraction” value was 0.071.

same assay, conditions: 1 µM

Compared with SUM159, SUM185PE is lower in “increase in dead-cell fraction” value: 0.0033 for the first, -0.0191 for the second.

First: SUM190PT
Second: SUM229PE
The “increase in dead-cell fraction” value of the first is higher: 0.0239 for the first, 0.0021 for the second.

With SUM1315 the “increase in dead-cell fraction” value was 0.0703.

same assay, conditions: 3.162 µM

First: SUM159
Second: SUM185PE
The “increase in dead-cell fraction” value of the first is higher: 0.0075 for the first, -0.0045 for the second.

First: SUM190PT
Second: SUM229PE
The “increase in dead-cell fraction” value of the first is higher: 0.0464 for the first, 0.0223 for the second.

SUM1315 was tested, and the “increase in dead-cell fraction” value was 0.0888.

same assay, conditions: 10 µM

Going from SUM159 to SUM185PE, the “increase in dead-cell fraction” value falls from 0.0212 to 0.0009.

Compared with SUM190PT, SUM229PE is higher in “increase in dead-cell fraction” value: 0.006 for the first, 0.0109 for the second.

For SUM1315, the “increase in dead-cell fraction” value was 0.114.

compound: CN1CC[C@H](c2c(O)cc(O)c3c(=O)cc(-c4ccccc4Cl)oc23)[C@H](O)C1 [Flavopiridol]; assay: as above; conditions: 0.0001 µM

First: SUM159
Second: SUM185PE
The “increase in dead-cell fraction” value of the first is lower: -0.0034 for the first, 0.0138 for the second.

Compared with SUM190PT, SUM229PE is lower in “increase in dead-cell fraction” value: -0.0004 for the first, -0.0011 for the second.

In the case of SUM1315, the “increase in dead-cell fraction” value was 0.0039.

same assay, conditions: 0.0003162 µM

Going from SUM159 to SUM185PE, the “increase in dead-cell fraction” value rises from -0.0008 to 0.0542.

Going from SUM190PT to SUM229PE, the “increase in dead-cell fraction” value falls from -0.0016 to -0.0025.

SUM1315 was tested, and the “increase in dead-cell fraction” value was -0.0083.

same assay, conditions: 0.001 µM

Compared with SUM159, SUM185PE is higher in “increase in dead-cell fraction” value: -0.0034 for the first, 0.0183 for the second.

Compared with SUM190PT, SUM229PE is higher in “increase in dead-cell fraction” value: -0.0005 for the first, 0.0061 for the second.

For SUM1315, the “increase in dead-cell fraction” value was 0.0048.

same assay, conditions: 0.003162 µM

Going from SUM159 to SUM185PE, the “increase in dead-cell fraction” value falls from -0.0003 to -0.0158.

Going from SUM190PT to SUM229PE, the “increase in dead-cell fraction” value rises from -0.0011 to 0.0065.

For SUM1315, the “increase in dead-cell fraction” value was 0.0087.

same assay, conditions: 0.01 µM

First: SUM159
Second: SUM185PE
The “increase in dead-cell fraction” value of the first is lower: -0.0024 for the first, 0.0161 for the second.

Going from SUM190PT to SUM229PE, the “increase in dead-cell fraction” value falls from 0.0056 to -0.0032.

For SUM1315, the “increase in dead-cell fraction” value was 0.0083.

same assay, conditions: 0.03162 µM

First: SUM159
Second: SUM185PE
The “increase in dead-cell fraction” value of the first is lower: 0.012 for the first, 0.0472 for the second.

Compared with SUM190PT, SUM229PE is lower in “increase in dead-cell fraction” value: 0.0019 for the first, -0.003 for the second.

With SUM1315 the “increase in dead-cell fraction” value was 0.0248.

same assay, conditions: 0.1 µM

Going from SUM159 to SUM185PE, the “increase in dead-cell fraction” value falls from 0.0436 to 0.021.

First: SUM190PT
Second: SUM229PE
The “increase in dead-cell fraction” value of the first is lower: 0.0046 for the first, 0.0189 for the second.

For SUM1315, the “increase in dead-cell fraction” value was -0.0084.

same assay, conditions: 0.3162 µM

Going from SUM159 to SUM185PE, the “increase in dead-cell fraction” value falls from 0.205 to -0.002.

Compared with SUM190PT, SUM229PE is higher in “increase in dead-cell fraction” value: 0.0223 for the first, 0.0897 for the second.

With SUM1315 the “increase in dead-cell fraction” value was 0.383.

same assay, conditions: 1 µM

Compared with SUM159, SUM185PE is lower in “increase in dead-cell fraction” value: 0.208 for the first, 0.117 for the second.

First: SUM190PT
Second: SUM229PE
The “increase in dead-cell fraction” value of the first is higher: 0.082 for the first, 0.0752 for the second.

In the case of SUM1315, the “increase in dead-cell fraction” value was 0.596.

compound: CCOc1cc2ncc(C#N)c(Nc3ccc(OCc4ccccn4)c(Cl)c3)c2cc1NC(=O)/C=C/CN(C)C [Neratinib/HKI272]; assay: as above; conditions: 0.0003162 µM

Compared with SUM159, SUM185PE is higher in “increase in dead-cell fraction” value: -0.005 for the first, 0.0036 for the second.

Going from SUM190PT to SUM229PE, the “increase in dead-cell fraction” value rises from -0.0031 to 0.0008.

For SUM1315, the “increase in dead-cell fraction” value was 0.0036.

same assay, conditions: 0.001 µM

Compared with SUM159, SUM185PE is lower in “increase in dead-cell fraction” value: -0.0025 for the first, -0.0035 for the second.

First: SUM190PT
Second: SUM229PE
The “increase in dead-cell fraction” value of the first is lower: -0.0024 for the first, 0.0005 for the second.

In the case of SUM1315, the “increase in dead-cell fraction” value was 0.0058.

same assay, conditions: 0.003162 µM

Compared with SUM159, SUM185PE is higher in “increase in dead-cell fraction” value: -0.0041 for the first, 0.0085 for the second.

Going from SUM190PT to SUM229PE, the “increase in dead-cell fraction” value rises from -0.0097 to -0.0005.

SUM1315 was tested, and the “increase in dead-cell fraction” value was 0.0067.

same assay, conditions: 0.01 µM

Going from SUM159 to SUM185PE, the “increase in dead-cell fraction” value rises from -0.0075 to 0.0152.

Compared with SUM190PT, SUM229PE is lower in “increase in dead-cell fraction” value: 0.0037 for the first, 0.0001 for the second.

With SUM1315 the “increase in dead-cell fraction” value was 0.0047.

same assay, conditions: 0.03162 µM

Going from SUM159 to SUM185PE, the “increase in dead-cell fraction” value rises from -0.0087 to 0.0297.

Going from SUM190PT to SUM229PE, the “increase in dead-cell fraction” value rises from -0.0082 to 0.0043.

In the case of SUM1315, the “increase in dead-cell fraction” value was 0.0181.

same assay, conditions: 0.1 µM

First: SUM159
Second: SUM185PE
The “increase in dead-cell fraction” value of the first is lower: -0.0118 for the first, 0.0255 for the second.

First: SUM190PT
Second: SUM229PE
The “increase in dead-cell fraction” value of the first is lower: 0.0008 for the first, 0.0062 for the second.

SUM1315 was tested, and the “increase in dead-cell fraction” value was 0.0402.

same assay, conditions: 0.3162 µM

Compared with SUM159, SUM185PE is higher in “increase in dead-cell fraction” value: -0.0133 for the first, 0.0574 for the second.

Going from SUM190PT to SUM229PE, the “increase in dead-cell fraction” value rises from 0.0036 to 0.0046.

For SUM1315, the “increase in dead-cell fraction” value was 0.0578.

same assay, conditions: 1 µM

Going from SUM159 to SUM185PE, the “increase in dead-cell fraction” value rises from -0.01 to 0.068.

Going from SUM190PT to SUM229PE, the “increase in dead-cell fraction” value falls from 0.0415 to 0.0111.

SUM1315 was tested, and the “increase in dead-cell fraction” value was 0.0857.

same assay, conditions: 3.162 µM

First: SUM159
Second: SUM185PE
The “increase in dead-cell fraction” value of the first is lower: -0.004 for the first, 0.0933 for the second.

Going from SUM190PT to SUM229PE, the “increase in dead-cell fraction” value falls from 0.0395 to 0.0132.

In the case of SUM1315, the “increase in dead-cell fraction” value was 0.0855.
